This is an account of results in patent US5710160A, “Diphenyl pyridyl ethane derivatives as PDE IV inhibitors” (Merck Frosst Canada, Inc., priority 1996, dated 1998).

The target in data set [1] is T1, GST fusion protein of the human recombinant phosphodiesterase IVa (met-248) (Homo sapiens, UniProt P27815).
T1 construct: GST-Met 248 PDE IVa; made in house; host or cells: Sf-9 insect cells (baculovirus expression system)
The data set is described as follows: SPA based PDE activity assay (hydrolysis of cAMP to AMP). In kind it is biochemical. The note with it: 100 nM cAMP; purified GST fusion protein, baculovirus/Sf-9; 10 min at 30° C. Here is the method:
Phosphodiesterase Scintillation Proximity Assay
CHO-K1 cells were lysed by sonication for 10 secs at a power setting of 50% (Braunsonic Model 2000) in an ice cold solution containing 50 mM Tris, pH 7.5; 1 mM EDTA; and 200 mM b-mercaptoethanol.
The soluble and particulate fractions of the cell were obtained by centrifuging the sonicate for 90 min. at 100,000 x g at 4° C. PDE activity was measured in a solution containing 50 mM Tris, pH 7.5; 10 mM MgCl2; 1 mM EDTA; and 100 nM (or indicated) ^3 H-cAMP (100 ml final volume) in the presence of varying concentrations of inhibitor. The reaction mixture containing enzyme was incubated for 10 min. at 30° C. in 96-well View Plates (Packard), and terminated by the addition of 50 ml Phosphodiesterase Scintillation Proximity Assay (SPA) Beads (Amersham) containing 18 mM ZnSO4. The amount of ^3 H-cAMP hydrolysis was determined by counting the plates in a Wallac 1450 mBeta LSC counter.
SPA based PDE activity assay protocol
Compounds which inhibit the hydrolysis of cAMP to AMP by the type-IV cAMP-specific phosphodiesterases were screened in 96-well plate format as follows:
In a 96 well-plate at 30° C. was added the test compound (dissolved in 2 ul DMSO), 188 ml of substrate buffer containing [2,8-^3 H] adenosine 3',5'-cyclic phosphate (cAMP, 100 nM to 50 μM), 10 mM MgCl2, 1 mM EDTA, 50 mM Tris, pH 7.5. The reaction was initiated by the addition of […] of human recombinant PDE-IV (the amount was controlled so that~10% product was formed in 10 min. at 30° C). The reaction was stopped after 10 min. by the addition of 1 mg of PDE-SPA beads (Amersham). The product AMP generated was quantified on a Microbeta 96-well plate counter. The signal in the absence of enzyme was defined as the background. 100% activity was defined as the signal detected in the presence of enzyme and DMSO with the background subtracted. Percentage of inhibition was calculated accordingly. IC50 value was approximated with a non-linear regression fit of the standard 4-parameter/multiple binding sites equation from a ten point titration.
IC50 values shown in Table 2 were determined with 100 nM cAMP using the purified GST fusion protein of the human recombinant phosphodiesterase IVa (met-248) produced from a baculovirus/Sf-9 expression system.

The test system of data set [2] is right atrial and papillary muscles. The data set is described as follows: Effects on cardiac muscle in vitro. The note with it: reference PDE inhibitors; no concentration given. Further details: species or system guinea pigs. The text has this:
Right atrial and papillary muscles were dissected out from the hearts of guinea pigs and suspended in organ baths for measuring the rate (chronotropic) of spontaneously beating atria and force (inotropic) of the electrically stimulated papillary muscle.

For data set [3] the test system is unchanged. The following applies: non-specific PDE inhibitor; general statement; cited from earlier work.

Each structure is given as a SMILES string.

T1 sequence (P27815 248-886 limits assumed): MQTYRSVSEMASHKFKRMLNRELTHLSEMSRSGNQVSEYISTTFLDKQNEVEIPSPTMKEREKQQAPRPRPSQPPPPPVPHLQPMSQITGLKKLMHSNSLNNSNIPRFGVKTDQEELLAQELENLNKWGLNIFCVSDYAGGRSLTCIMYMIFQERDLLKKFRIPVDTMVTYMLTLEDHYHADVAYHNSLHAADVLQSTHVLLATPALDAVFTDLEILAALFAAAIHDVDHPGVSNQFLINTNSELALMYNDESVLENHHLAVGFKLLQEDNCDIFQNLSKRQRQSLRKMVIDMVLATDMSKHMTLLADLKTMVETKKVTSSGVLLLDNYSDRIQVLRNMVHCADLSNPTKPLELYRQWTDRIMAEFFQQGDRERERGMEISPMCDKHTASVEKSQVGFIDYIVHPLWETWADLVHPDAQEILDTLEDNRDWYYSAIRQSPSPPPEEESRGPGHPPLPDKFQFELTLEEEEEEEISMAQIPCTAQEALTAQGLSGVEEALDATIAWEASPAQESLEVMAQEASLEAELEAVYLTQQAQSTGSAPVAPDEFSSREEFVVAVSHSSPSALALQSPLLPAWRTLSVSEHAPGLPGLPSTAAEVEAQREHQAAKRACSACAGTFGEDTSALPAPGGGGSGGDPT

As to `COc1ccc([C@H](Cc2ccncc2)c2ccc(C=NO)cc2)cc1OC1CCCC1` [Example 3, (R)-4-[1-(3-Cyclopentyloxy-4-methoxyphenyl)-2-(4-pyridyl)ethyl]benzaldehyde oxime], in data set [1], the IC50 worked out at 3 nM. With `COc1ccc(C2CNC(=O)C2)cc1OC1CCCC1` (stereo not drawn) [rolipram], the “direct (chronotropic and inotropic) effects in these preparations” value in data set [2] is given as “do not have any direct effects”. On to `COc1ccc([C@H](Cc2ccncc2)c2ccc(C(=O)N3CCCC3)cc2)cc1OC1CCCC1` [Example 2, (R)-4-[2-(3-Cyclopentyloxy-4-methoxyphenyl)-2-(4-pyrrolidinocarbonylphenyl)ethyl]pyridine], for which the IC50 in data set [1] was 1 nM.

In the case of `COc1ccc([C@H](Cc2ccncc2)c2ccc(C(=O)N3CCN(C)CC3)cc2)cc1OC1CCCC1` [Example 1, (R)-4-{2-(3-Cyclopentyloxy-4-methoxyphenyl)-2-[4-(4-methylpiperazinocarbonyl)pheny]lethyl}pyridine], in data set [1], the IC50 amounted to 0.8 nM. `COc1ccc([C@H](Cc2ccncc2)c2ccc(C(C)=O)cc2)cc1OC1CCCC1` [Example 6, (R)-4-[2-(3-Cyclopentyloxy-4-methoxyphenyl)-2-(4-acetylphenyl)ethyl]pyridine]: the IC50 in data set [1] was determined as 3 nM.

Consider `Cn1c(=O)c2[nH]cnc2n(C)c1=O` [theophylline], for which the cardiovascular changes result in data set [3] is given as “significant cardiovascular changes such as tachycardia”.

`COc1ccc([C@H](Cc2ccncc2)c2ccc(-c3nnn[nH]3)cc2)cc1OC1CCCC1` [Example 4, (R)-4-{2-(3-Cyclopentyloxy-4-methoxyphenyl)-2-[4-(tetrazol-5-yl)phenyl]ethyl}pyridine]: the IC50 in data set [1] is 2 nM. Take `Cc1[nH]c(=O)c(C#N)cc1-c1ccncc1` [milrinone]: the “direct (chronotropic and inotropic) effects in these preparations” value in data set [2] is “positive chronotropic and inotropic effects”. As for `COc1ccc([C@H](Cc2ccncc2)c2ccc(C(C)O)cc2)cc1OC1CCCC1` (stereo partly drawn) [Example 5, (R)-4-{2-(3-Cyclopentyloxy-4-methoxyphenyl)-2-[4-(1-hydroxyethyl)phenyl]ethyl}pyridine], the IC50 in data set [1] was 2 nM.

As a reminder, the IC50 is the concentration at which inhibition is half-maximal.
